A short description of data set [1]: Example 6: buffer capacity titration of parecoxib sodium formulations with added buffer. The format is physicochemical. The following applies: for Improvement in buffer capacity: parecoxib sodium 40 mg/ml f.a.e., acid to adjust pH 8.5 to 7.4, with versus without buffer; for effect of added buffer on buffer capacity: parecoxib sodium formulations tested, PEG 600/WFI. The protocol: The amount of titrant used to titrate each parecoxib sodium/buffer solution was compared with that required to titrate a parecoxib solution without buffer. Percent improvement in buffer capacity was determined by comparing the amount of acid required to adjust pH from 8.5 to 7.4 in the presence versus absence of buffer.

Data set [2] can be described thus: Example 6: solubility of buffers in PEG 600/water solvent liquid. It counts as physicochemical. The following applies: solvent liquid 65% PEG 600 and 35% water, room temperature.
Data set [3] can be described thus: Example 3: stability of parecoxib sodium in PEG-containing solvent liquids. The format is physicochemical. As to conditions: 70° C., 7 days, FIG. 3. The protocol: (§1) The procedure was similar to that of Example 1. Valdecoxib formed was calculated as a percentage of parecoxib initially present.
The nature of data set [4]: Example 2: stability of parecoxib sodium in solvent liquids with different solubilizers. The format is physicochemical. The following applies: 55° C., 3 days, FIG. 2. The protocol: as §1
Data set [5] can be described thus: Example 4: storage stability of liquid formulations LF1-LF9 (valdecoxib formed, HPLC). The format is physicochemical. As to conditions: PEG/water formulations of Example 4 (PEG 300, 400, 600). The protocol: Each vial was flushed with nitrogen gas prior to stoppering.
Valdecoxib was measured by HPLC and was calculated as a percentage of parecoxib initially present.

Data set [6] can be described thus: Example 1: stability of parecoxib sodium in candidate solubilizers (valdecoxib formed, HPLC). As to conditions: 40 mg/ml f.a.e., 70° C., 7 days, FIG. 1. It counts as physicochemical. The protocol:
Formulations were prepared and sealed in Type I vials. […] Valdecoxib formed was calculated as a percentage of parecoxib initially present.

The conditions of data set [7]: cited from earlier work.
Data set [8] addresses COX-1 (Homo sapiens, UniProt P23219). As to conditions: cited from earlier work.
Data set [9] is described as follows: precipitation of parecoxib free acid on downward pH drift of composition. It counts as physicochemical. As to conditions: parecoxib salt composition, downward pH drift on storage. An excerpt: Presence of precipitated parecoxib free acid in a parenteral composition is undesirable as it can cause local pain and irritation upon injection.
Data set [10] is described as follows: conversion of parecoxib to valdecoxib after parenteral administration. The format is in vivo. As to conditions: human subject. An excerpt: The term “equal” in this context means equal in molar amount or in absolute amount (i.e., in weight).

Sequence of COX-1 (P23219 24-599): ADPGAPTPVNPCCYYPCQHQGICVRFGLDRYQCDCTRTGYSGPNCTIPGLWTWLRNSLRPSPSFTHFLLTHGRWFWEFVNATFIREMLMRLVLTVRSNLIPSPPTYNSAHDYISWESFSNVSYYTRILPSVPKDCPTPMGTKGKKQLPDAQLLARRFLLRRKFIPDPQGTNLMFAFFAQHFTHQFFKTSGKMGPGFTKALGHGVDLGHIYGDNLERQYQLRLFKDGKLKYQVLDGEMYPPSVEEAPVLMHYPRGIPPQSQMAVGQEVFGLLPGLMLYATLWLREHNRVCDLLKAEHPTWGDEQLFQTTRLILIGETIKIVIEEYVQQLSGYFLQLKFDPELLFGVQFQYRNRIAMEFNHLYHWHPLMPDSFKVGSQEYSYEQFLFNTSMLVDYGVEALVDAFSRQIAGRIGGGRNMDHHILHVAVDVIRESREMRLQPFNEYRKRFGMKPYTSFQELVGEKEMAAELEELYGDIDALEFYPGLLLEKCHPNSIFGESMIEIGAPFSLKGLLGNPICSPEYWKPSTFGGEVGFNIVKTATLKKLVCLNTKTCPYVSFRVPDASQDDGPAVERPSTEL

For `O=C1O[C@H]([C@@H](O)CO)C([O-])=C1O.[Na+]` [sodium ascorbate], in [1] (PEG 600/WFI 65/35 % by weight), the “Improvement in buffer capacity” value was 14-37%^1. The “effect of added buffer on buffer capacity” value (shortened to “effect of added buffer”) in [1] is listed as “further improved buffer capacity”.

With `NCC(=O)O` [glycine], the “Improvement in buffer capacity” value in [1] (PEG 600/WFI 55/45 % by weight) and in data set [1] (PEG 600/WFI 65/35 % by weight) was “negligible” throughout.

Turning to `NC(CO)(CO)CO` [tris, 2-amino-2-(hydroxymethyl)-1,3-propanediol], the “Solubility > 0.01 M” value in data set [2] is “yes”. Moreover, the “Improvement in buffer capacity” value in [1] (PEG 600/WFI 55/45 % by weight) came to 229%; in data set [1] (PEG 600/WFI 65/35 % by weight), 63%. The “effect of added buffer” value in [1] is listed as “further improved buffer capacity”.

As to `CCC(=O)NS(=O)(=O)c1ccc(-c2c(-c3ccccc3)noc2C)cc1` [parecoxib sodium], the “stability (valdecoxib formed)” value is “acceptably stable” in [3] (65% PEG 300, PEG 400 or PEG 600 in water); “less so” in data set [4] (propylene glycol containing solvent liquids); “stable” in data set [4] (solvent liquids comprising PEG 300, ethanol or DMAC, with or without water). Further, the “valdecoxib formed, comparison of PEG grades” value in data set [3] (65% PEG 600 or PEG 400 versus 65% PEG 300 in water) is reported as “less valdecoxib formed”. Also, the conversion to valdecoxib entry in data set [4] (solvent liquids comprising glycerin) was “significant conversion to valdecoxib”. In addition, in [5], the “parecoxib sodium stability as a function of PEG molecular weight” value is “increases with increasing PEG molecular weight”. In addition, in data set [6] (PEG 300, DMAC, 95% ethanol or 10 mM phosphate buffer pH 8.1 versus propylene glycol), the “valdecoxib formed (stability)” value is listed as “less valdecoxib was formed”. In addition, in data set [6] (in presence of glycerin), the “conversion of parecoxib to valdecoxib” value is “very rapid”. In addition, the “buffering effect of parecoxib sodium itself” value in data set [1] (less concentrated PEG solutions) was “weaker buffering effect”; in data set [1] (more highly concentrated PEG solutions), “excellent buffer”.

For the compound `O=C([O-])/C=C\C(=O)[O-].[Na+].[Na+]` [sodium maleate], the “Improvement in buffer capacity” value in data set [1] (PEG 600/WFI 65/35 % by weight) worked out at 21%. For the same compound, the “effect of added buffer” value in data set [1] is “further improved buffer capacity”.

In the case of `Cc1onc(-c2ccccc2)c1-c1ccc(S(N)(=O)=O)cc1` [valdecoxib], the solubility in water entry in data set [7] is recorded as “about 10 μg/ml”. For the same compound, the “in vitro inhibitory activity against COX-1” value in data set [8] was “weak inhibitor”.

`N=C(N)NCCC[C@H](N)C(=O)O` [L-arginine]: the “Improvement in buffer capacity” value in [1] (PEG 600/WFI 65/35 % by weight) is reported as “negligible”.

As for `CC(=O)[O-].[Na+]` [sodium acetate], the “Improvement in buffer capacity” value in data set [1] (PEG 600/WFI 55/45 % by weight) and in data set [1] (PEG 600/WFI 65/35 % by weight) was “negligible” in each case.

Consider `N[C@@H](Cc1c[nH]cn1)C(=O)O` [histidine], for which the “Solubility > 0.01 M” value in data set [2] is on record as “no”.

`CCC(=O)NS(=O)(=O)c1ccc(-c2c(-c3ccccc3)noc2C)cc1` [parecoxib, N-[[4-(5-methyl-3-phenylisoxazol-4-yl)phenyl]sulfonyl]propanamide]: the “pH of the composition below which parecoxib precipitates in free acid form” value in data set [9] is “below 7.4”. For the same compound, the “in vitro inhibitory activity against COX-1” value in [8] is “weak in vitro inhibitory activity”. Moreover, the “conversion to valdecoxib after parenteral administration” value in data set [10] was “rapidly and completely converted to valdecoxib”.

Consider `CC(O)C(=O)[O-].[Na+]` (stereo not drawn) [sodium lactate], for which the “Improvement in buffer capacity” value in [1] (PEG 600/WFI 65/35 % by weight) is “negligible”.

Source of the values: patent US20040127537A1 (priority 2002, published 2004).
